Values quoted from earlier work as cited in patent US10858575B2, “Temperature-stable corrosion inhibitor compositions and methods of use” (ChampionX USA Inc., priority 2017, dated 2020).

Experiments:
[1] = at 20° C.
[2] = octanol/water

For COCC(C)O (centres unmarked) [propylene glycol methyl ether], the vapor pressure [1] is listed as 8.7 mm Hg.

In the case of COCCOCCO [diethylene glycol methyl ether], the vapor pressure [1] is listed as 0.2 mm Hg.

In the case of CCOCCO [ethylene glycol ethyl ether], the vapor pressure [1] is given as 3.8 mm Hg.

In the case of CCCCCCOCCOCCO [diethylene glycol hexyl ether], the vapor pressure [1] is given as 0.001 mm Hg.

For CCCCOCC(C)O (centres unmarked) [propylene glycol butyl ether], the vapor pressure [1] is listed as 0.85 mm Hg.

In the case of CCCCOCCO [ethylene glycol butyl ether], the vapor pressure [1] is listed as 10 mm Hg.

For CCCCCCOCCO [ethylene glycol hexyl ether], the vapor pressure [1] is given as 0.05 mm Hg.

In the case of CCCCOC(C)COC(C)COC(C)CO (centres unmarked) [tripropylene glycol butyl ether], the vapor pressure [1] is listed as 0.002 mm Hg.

In the case of CCCOCC(C)O (centres unmarked) [propylene glycol propyl ether], the vapor pressure [1] is given as 4.5 mm Hg.

For COC(C)COC(C)CO (centres unmarked) [dipropylene glycol methyl ether], the vapor pressure [1] is given as 0.28 mm Hg.

In the case of O=C1CCCO1, the LogP [2] is listed as −0.57.

In the case of CCCCOCCOCCO [diethylene glycol butyl ether], the vapor pressure [1] is listed as 30 mm Hg.

In the case of CCCOC(C)COC(C)CO (centres unmarked) [dipropylene glycol propyl ether], the vapor pressure [1] is given as 0.08 mm Hg.

In the case of CCOCCOCCO [diethylene glycol ethyl ether], the vapor pressure [1] is given as 0.12 mm Hg.
